{"source": "patent US20110190348A1", "about": "“METHODS FOR TREATING CNS DISORDERS” (priority 2008, published 2011)", "key": {"Male NMRI mice [1]": {"tested_on": "Male NMRI mice", "assay": "Forced swimming test (FST)", "assay_type": "in vivo", "conditions": "doses of 5 and 10 mg/kg p.o., may be a false positive from nonspecific stimulatory effect", "protocol": "The aim of this study was to evaluate the antidepressant activity of radiprodil. The forced swimming test is a behavioral assay that can be used to predict antidepressant efficacy of drugs in humans.\n(§1) Male NMRI mice weighing 24-26 g were used. The animals were kept in polycarbonate cages in a thermostatically controlled room at 24+2° C. and at a relative humidity (RH) of 50±10%. The room was artificially illuminated from 6 am to 6 pm and the mice were given commercial pellet rat-mouse feed, autoclaved at 105° C. and sterile filtered tap water, ad libitum.\n(§2) An aqueous solution of radiprodil, in the form of a complex with heptakis(2,6-di-O-methyl)-β-cyclodextrin(DIMEB), was administered orally at doses of 2.5, 5 and 10 mg/kg (calculated for non-complexed radiprodil). […]\nThe forced swimming test (FST) was measured in glass cylinders (height: […], diameter 14 cm) containing 12 cm of water, maintained at 23-25° C. […] The duration of immobility was recorded using a stopwatch. […]\nIn the forced swimming test, the mean±standard error on the mean (s.e.m) immobility time in seconds was measured. […] The mean (±s.e.m) “FST-activity” value was also calculated for each group and submitted to the same data analysis process as the immobility data.\nThe significance of the drug effect was determined by ANOVA followed by post-hoc Duncan-test. […]"}, "Male NMRI mice [2]": {"tested_on": "Male NMRI mice", "assay": "Spontaneous locomotor activity", "assay_type": "in vivo", "conditions": "doses of 5 and 10 mg/kg p.o.", "protocol": "as §1, §2\nSpontaneous locomotor activity was measured in a four-channel activity monitor manufactured by Farmakotechnika (Hungary). […] The photocell beam, when broken, signaled a count, which was then recorded by a computer.\nEach group consisted of 10 animals. […] The horizontal and vertical movements were determined as the number of beam interruptions collected in 15 minute intervals throughout the 1 hour period.\nIn the spontaneous locomotor activity test, the mean (±s.e.m) value of one hour horizontal activity data (in counts) of each group was calculated.\nThe significance of the drug effect was determined by ANOVA followed by post-hoc Duncan-test. The percentage change in the horizontal activity, immobility or “FST-activity” variables were calculated for each dose according to the equation; […]"}}}
{"compound": "O=C(Nc1ccc2[nH]c(=O)oc2c1)C(=O)N1CCC(Cc2ccc(F)cc2)CC1", "note": "[radiprodil, 2-[4-(4-fluoro-benzyl)-piperidine-1-yl]-2-oxo-N-(2-oxo-2,3-dihydro-benzoxazol-6-yl)acetamide]", "values": [{"measurement": "effect in the forced swimming test (in words)", "setting": "Male NMRI mice [1]", "value": "significant effects"}, {"measurement": "effect on spontaneous motor activity (in words)", "setting": "Male NMRI mice [2]", "value": "stimulated the spontaneous motor activity"}]}
